Assay results taken from PubChem BioAssay (NCI).
“And” between values parts separate entries of the source, which are not always exact repeats. Identical values can stand only once.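 Tested at 5 concentrations; 48 h exposure; 96-well plates; endpoints linearly interpolated, else capped at highest concentration. GI50: concentration for 50% inhibition of growth. TGI: total growth inhibition.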

Legend:
Assay in all cases: growth of human tumour cells (NCI), 48 h
TK-10 renal = tested on: TK-10 renal
SNB-19 CNS = tested on: SNB-19 CNS
K-562 leukemia = tested on: K-562 leukemia
NCI-H460 lung = tested on: NCI-H460 lung
UACC-257 melanoma = tested on: UACC-257 melanoma
SF-539 CNS = tested on: SF-539 CNS
RPMI-8226 leukemia = tested on: RPMI-8226 leukemia
CCRF-CEM leukemia = tested on: CCRF-CEM leukemia
UACC-62 melanoma = tested on: UACC-62 melanoma
SNB-75 CNS = tested on: SNB-75 CNS

For `CCCCCCCCCCCCO[P+](=O)OCCCCCCCCCCCC`, the TGI (TK-10 renal) was 99.2 µM, the TGI (SNB-19 CNS) was over 100 µM and the TGI (K-562 leukemia) was over 100 µM. It also gave a TGI (NCI-H460 lung) of over 100 µM, a TGI (UACC-257 melanoma) of 62.2 µM and a TGI (SF-539 CNS) of over 100 µM. For the same compound, the TGI (RPMI-8226 leukemia) was over 100 µM, the TGI (CCRF-CEM leukemia) was over 100 µM and the TGI (UACC-62 melanoma) was over 100 µM. It also gave a TGI (SNB-75 CNS) of over 100 µM.
`NC(=O)Oc1ccccc1` showed a TGI (TK-10 renal) of over 100 µM, a TGI (SNB-19 CNS) of over 100 µM and a TGI (K-562 leukemia) of over 100 µM. It also gave a TGI (NCI-H460 lung) of over 100 µM, a TGI (UACC-257 melanoma) of over 100 µM and a TGI (CCRF-CEM leukemia) of over 100 µM. The TGI (SNB-75 CNS) was over 100 µM.
For `C=C(C)[C@@H]1CC[C@]2(C(=O)NC(C)=O)CC[C@]3(C)[C@H](CC[C@@H]4[C@@]5(C)CCCNC(C)(C)[C@@H]5CC[C@]43C)[C@@H]12`, the GI50 (TK-10 renal) was 1.79 µM, the TGI (TK-10 renal) was 3.38 µM and the GI50 (SNB-19 CNS) was 1.6 µM. It also gave a TGI (SNB-19 CNS) of 2.96 µM, a GI50 (K-562 leukemia) of 1.12 µM and a TGI (K-562 leukemia) of 3.18 µM. It also gave a GI50 (NCI-H460 lung) of 1.64 µM, a TGI (NCI-H460 lung) of 3.13 µM and a GI50 (UACC-257 melanoma) of 1.95 µM. The TGI (UACC-257 melanoma) was 3.75 µM, the GI50 (SF-539 CNS) was 1.51 µM and the TGI (SF-539 CNS) was 2.84 µM. The GI50 (RPMI-8226 leukemia) was 1.18 µM, the TGI (RPMI-8226 leukemia) was 3.4 µM and the GI50 (CCRF-CEM leukemia) was 1.65 µM. For the same compound, the TGI (CCRF-CEM leukemia) was 4.55 µM, the GI50 (UACC-62 melanoma) was 1.73 µM and the TGI (UACC-62 melanoma) was 3.11 µM. For the same compound, the GI50 (SNB-75 CNS) was 1.4 µM and the TGI (SNB-75 CNS) was 2.83 µM.
For `CCOC(=O)Cn1c(=O)c(C)cn(COCCO)c1=O`, the TGI (TK-10 renal) was over 100 µM, the TGI (SNB-19 CNS) was over 100 µM and the TGI (K-562 leukemia) was over 100 µM. The TGI (NCI-H460 lung) was over 100 µM, the TGI (UACC-257 melanoma) was over 100 µM and the TGI (SF-539 CNS) was over 100 µM. For the same compound, the TGI (RPMI-8226 leukemia) was over 100 µM and the TGI (SNB-75 CNS) was over 100 µM.
Work on `O=C(CCC1CCCCN1)Nc1ccc2c(c1)C(=O)c1ccc(NC(=O)CCN3CCCCC3)cc1C2=O` (stereo unspecified) yielded a TGI (TK-10 renal) of 9.42 µM, a TGI (K-562 leukemia) of 4.97 µM and a TGI (NCI-H460 lung) of 23.9 µM. The TGI (UACC-257 melanoma) was 2.94 µM, the TGI (SF-539 CNS) was 8.46 µM and the GI50 (CCRF-CEM leukemia) was 1.12 µM. For the same compound, the TGI (CCRF-CEM leukemia) was 4.86 µM and the TGI (SNB-75 CNS) was 16.4 µM.
For `CCN(CC)CCO[Si](OCCN(CC)CC)(OCCN(CC)CC)OCCN(CC)CC`, the TGI (TK-10 renal) was over 100 µM, the TGI (SNB-19 CNS) was over 100 µM and the TGI (NCI-H460 lung) was over 100 µM. The TGI (UACC-257 melanoma) was over 100 µM, the TGI (SF-539 CNS) was over 100 µM and the TGI (UACC-62 melanoma) was over 100 µM. It also gave a TGI (SNB-75 CNS) of over 100 µM.
Compound `CN/N=C(\C(=O)Nc1ccc(C)c(C)c1)C(C(=O)OC)c1nc2ccc([N+](=O)[O-])cc2[nH]c1=O` (stereo unspecified) has a TGI (TK-10 renal) of over 100 µM, a TGI (SNB-19 CNS) of over 100 µM and a TGI (K-562 leukemia) of over 100 µM. It also gave a TGI (NCI-H460 lung) of over 100 µM, a TGI (UACC-257 melanoma) of over 100 µM and a TGI (SF-539 CNS) of over 100 µM. The TGI (RPMI-8226 leukemia) was over 100 µM, the TGI (CCRF-CEM leukemia) was over 100 µM and the TGI (UACC-62 melanoma) was over 100 µM. It also gave a TGI (SNB-75 CNS) of over 100 µM.
With `COC(=O)C1c2cc3c(c(O)c2C(O)CC1(C)O)C(=O)c1c(O)cc2c(c1C3=O)OC1OC2(C)C(O)C(N(C)C)C1O` (stereo unspecified) the TGI (SNB-19 CNS) was over 100 µM, the TGI (K-562 leukemia) was over 100 µM and the TGI (NCI-H460 lung) was over 100 µM. It also gave a TGI (RPMI-8226 leukemia) of over 100 µM, a TGI (CCRF-CEM leukemia) of over 100 µM and a TGI (SNB-75 CNS) of over 20.9 µM.
For `COc1ccc(-c2n/c(=C\c3c(O)[nH]c4ccccc34)cc3c2=Nc2ccccc2-3)cc1`, the GI50 (TK-10 renal) was 1.65 µM, the TGI (TK-10 renal) was 3.01 µM and the GI50 (SNB-19 CNS) was 1.63 µM. It also gave a TGI (SNB-19 CNS) of 3.79 µM, a GI50 (K-562 leukemia) of 1.45 µM and a TGI (K-562 leukemia) of 3.63 µM. The GI50 (NCI-H460 lung) was 1.68 µM, the TGI (NCI-H460 lung) was 3.28 µM and the GI50 (UACC-257 melanoma) was 2.19 µM. The TGI (UACC-257 melanoma) was 6.97 µM, the GI50 (SF-539 CNS) was 1.86 µM and the TGI (SF-539 CNS) was 3.31 µM. For the same compound, the GI50 (RPMI-8226 leukemia) was 2.35 µM, the TGI (RPMI-8226 leukemia) was 6.87 µM and the GI50 (CCRF-CEM leukemia) was 2.24 µM. It also gave a TGI (CCRF-CEM leukemia) of 7.1 µM, a GI50 (UACC-62 melanoma) of 1.31 µM and a TGI (UACC-62 melanoma) of 2.58 µM. The GI50 (SNB-75 CNS) was 2.07 µM and the TGI (SNB-75 CNS) was 21.1 µM.
In the case of `S=c1nc[nH]c2c1ncn2C1CCCO1` (stereo unspecified), the TGI (TK-10 renal) is reported as over 100 µM, the TGI (SNB-19 CNS) is reported as over 100 µM and the TGI (K-562 leukemia) is reported as over 100 µM. The TGI (NCI-H460 lung) was over 100 µM, the TGI (SF-539 CNS) was over 100 µM and the TGI (RPMI-8226 leukemia) was over 100 µM. For the same compound, the TGI (CCRF-CEM leukemia) was over 100 µM, the TGI (UACC-62 melanoma) was over 100 µM and the TGI (SNB-75 CNS) was over 100 µM.
`CCOC(C)OC1CC(n2cc(C)c(=O)[nH]c2=O)OC1CO` (stereo unspecified) showed a TGI (TK-10 renal) of over 100 µM, a TGI (SNB-19 CNS) of over 100 µM and a TGI (K-562 leukemia) of over 100 µM. It also gave a TGI (NCI-H460 lung) of over 100 µM, a TGI (UACC-257 melanoma) of over 100 µM and a TGI (SF-539 CNS) of over 100 µM. It also gave a TGI (RPMI-8226 leukemia) of over 100 µM and a TGI (CCRF-CEM leukemia) of over 100 µM.
For `CCOC(=O)C1=C(C)N(C2OC(COC(=O)c3ccccc3)C(OC(=O)c3ccccc3)C2OC(=O)c2ccccc2)C(=S)NC1c1ccccc1` (stereo unspecified), the TGI (SNB-19 CNS) was over 100 µM, the TGI (K-562 leukemia) was 91.7 µM and the TGI (NCI-H460 lung) was over 100 µM. For the same compound, the TGI (UACC-257 melanoma) was over 100 µM, the TGI (SF-539 CNS) was over 100 µM and the TGI (RPMI-8226 leukemia) was 45.2 µM. It also gave a TGI (CCRF-CEM leukemia) of over 100 µM, a TGI (UACC-62 melanoma) of over 100 µM and a TGI (SNB-75 CNS) of over 100 µM.
With `COc1ccc(C2=NC(c3ccc(Cl)cc3)C(c3ccc(Cl)cc3)N2C(=O)N2CCNC(=O)C2)c(OC(C)C)c1` (stereo unspecified) the GI50 (TK-10 renal) was 1.93 µM, the TGI (TK-10 renal) was 3.39 µM and the GI50 (SNB-19 CNS) was 2.08 µM. For the same compound, the TGI (SNB-19 CNS) was 4.91 µM, the GI50 (K-562 leukemia) was 3.47 µM and the TGI (K-562 leukemia) was over 10 µM. It also gave a GI50 (NCI-H460 lung) of 1.95 µM, a TGI (NCI-H460 lung) of 3.82 µM and a GI50 (UACC-257 melanoma) of 2.64 µM. It also gave a TGI (UACC-257 melanoma) of 4.84 µM, a GI50 (SF-539 CNS) of 2.02 µM and a TGI (SF-539 CNS) of 4.01 µM. The GI50 (RPMI-8226 leukemia) was 3.58 µM, the TGI (RPMI-8226 leukemia) was over 10 µM and the GI50 (CCRF-CEM leukemia) was 3.85 µM. It also gave a TGI (CCRF-CEM leukemia) of over 10 µM, a GI50 (UACC-62 melanoma) of 1.9 µM and a TGI (UACC-62 melanoma) of 3.4 µM. It also gave a GI50 (SNB-75 CNS) of 2.37 µM and a TGI (SNB-75 CNS) of 4.8 µM.
For `CN1CN(C(=O)N2CN(C)C(=O)N(C)C2)CN(C)C1=O`, the TGI (SNB-19 CNS) was over 100 µM, the TGI (K-562 leukemia) was over 100 µM and the TGI (UACC-257 melanoma) was over 100 µM. It also gave a TGI (SF-539 CNS) of over 100 µM, a TGI (RPMI-8226 leukemia) of over 100 µM and a TGI (CCRF-CEM leukemia) of over 100 µM. The TGI (UACC-62 melanoma) was over 100 µM and the TGI (SNB-75 CNS) was over 100 µM.
For `C(=C/c1nc2ccccc2o1)/c1ccc2c(c1)OCO2`, the TGI (SNB-19 CNS) was 38.6 µM, the TGI (K-562 leukemia) was over 65.3 µM and the TGI (NCI-H460 lung) was over 100 µM. It also gave a TGI (UACC-257 melanoma) of over 100 µM, a TGI (SF-539 CNS) of 34.6 µM and a TGI (RPMI-8226 leukemia) of over 100 µM. The TGI (CCRF-CEM leukemia) was over 100 µM, the TGI (UACC-62 melanoma) was over 45.5 µM and the TGI (SNB-75 CNS) was over 63.8 µM.
`CC1OC(=O)C(C(C)C)NC(=O)C(C(C)C)OC(=O)C(C(C)C)NC(=O)C(C)OC(=O)C(C(C)C)NC(=O)C(C(C)C)OC(=O)C(C(C)C)NC(=O)C(C)OC(=O)C(C(C)C)NC(=O)C(C(C)C)OC(=O)C(C(C)C)NC1=O` (stereo unspecified) showed a GI50 (SNB-19 CNS) of under 0.0001 µM, a TGI (SNB-19 CNS) of 1.25 µM and a GI50 (K-562 leukemia) of under 0.0001 µM. The TGI (K-562 leukemia) was 6.36 µM, the GI50 (NCI-H460 lung) was under 0.0001 µM and the TGI (NCI-H460 lung) was 0.182 µM and 0.185 µM. The TGI (UACC-257 melanoma) was 0.145 µM, the GI50 (SF-539 CNS) was 0.000484 µM and the TGI (SF-539 CNS) was 0.328 µM. The TGI (RPMI-8226 leukemia) was 0.0158 µM, the TGI (CCRF-CEM leukemia) was 4.2 µM and the GI50 (UACC-62 melanoma) was under 0.0001 µM. It also gave a TGI (UACC-62 melanoma) of 5.58 µM and a TGI (SNB-75 CNS) of 0.00378 µM.
`NS(=O)(=O)c1ccc(N=Nc2ccc(O)c(C(=O)O)c2)cc1` was tested, and the TGI (TK-10 renal) was over 100 µM, the TGI (SNB-19 CNS) was over 100 µM and the TGI (K-562 leukemia) was over 100 µM. It also gave a TGI (NCI-H460 lung) of over 100 µM, a TGI (UACC-257 melanoma) of over 100 µM and a TGI (RPMI-8226 leukemia) of over 100 µM. It also gave a TGI (UACC-62 melanoma) of over 100 µM and a TGI (SNB-75 CNS) of over 100 µM.
